No end group written: not given here. *: point of attachment. MMAE = monomethyl auristatin E, CC[C@H](C)[C@@H]([C@@H](CC(=O)N1CCC[C@H]1[C@H](OC)[C@@H](C)C(=O)N[C@H](C)[C@@H](O)c1ccccc1)OC)N(C)C(=O)[C@@H](NC(=O)[C@H](C(C)C)N(C)*)C(C)C; p‑aminobenzylcarbamate = NC(=O)OCc1ccc(N*)cc1
Columns and labels:
HCT116 xenograft tumor = assay: In vivo efficacy in HCT116 xenograft tumor model; design: species or system balb-c/nu mice; conditions: for tumor growth suppression (KGDEVD-MMAE ADCs): same tumor model, FIG. 7
Protocol: To assess the anti-tumor efficacy of anti-doppel ADCs, an HCT116 xenograft tumor model was used. HCT116 cells (1×10^^7 cells/mouse) were inoculated into the left flank of balb-c/nu mice. When the average tumor volume reach 70-100 mm^3, ADC was administered intravenously every 4 days for a total of 4 times. Tumor volume was measured every 4 days until the end of the experiments.

doppel = doppel (human, UniProt Q9UKY0 26-152); assay: cell-based or functional assay
Chain of doppel (Q9UKY0 26-152): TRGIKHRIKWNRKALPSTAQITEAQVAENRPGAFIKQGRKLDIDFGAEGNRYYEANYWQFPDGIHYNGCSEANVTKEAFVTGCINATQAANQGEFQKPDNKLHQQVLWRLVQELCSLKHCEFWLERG

Molecule: 3D5-KGDEVD-MMAE: ADC prepared as 3H9-KGDEVD-MMAE using anti-doppel mAb 3D5 (maleimide-KGDEVD-{p‑aminobenzylcarbamate-MMAE}; also: conjugated to mAb 3D5 through maleimide)
- tumor growth suppression (KGDEVD-MMAE ADCs) (HCT116 xenograft tumor): effectively suppressed tumor growth

Molecule: 3H9-DEVD-MMAE: ADC prepared as 3H9-KGDEVD-MMAE except using maleimide-DEVD-MMAE (DEVD-{p‑aminobenzylcarbamate-MMAE}; not fully specified (N-terminus); also: conjugated to mAb 3H9 through maleimide)
- tumor growth suppression, ADCs with different linkers (HCT116 xenograft tumor; HCT116 xenograft, FIG. 6): effectively suppressed tumor growth

Molecule: 4D1-KGDEVD-MMAE: ADC prepared as 3H9-KGDEVD-MMAE using anti-doppel mAb 4D1 (maleimide-KGDEVD-{p‑aminobenzylcarbamate-MMAE}; also: conjugated to mAb 4D1 through maleimide)
- tumor growth suppression (KGDEVD-MMAE ADCs) (HCT116 xenograft tumor): effectively suppressed tumor growth

B1: 3H9-KGDEVD-MMAE (name=SEQ ID NO:65; structure=SEQ ID NO:66) (antibody, human IgG1, kappa, V domains shown)
VH: EVQLVESGGGLVQPGGSLRLSCAASGFTFSSYAMSWVRQAPGKGLEWVSGISGSGSRTDYADSVKGRFTISRDNSKNTLYLQMNSLRAEDTAVYYCAKVYTYTRGFAFDLWGQGTLVTVSS
VL: DIQMTQSPSSLSASVGDRVTITCRASQSISNYLNWYQQKPGKAPKLLIYAASTLQSGVPSRFSGSGSGTDFTLTISSLQPEDFATYYCQQSYSFPYTFGQGTKVEIKR
modifications: maleimide-KGDEVD-MMAE (SEQ ID NO:77) linker-payload on reduced Cys residues of the partially reduced mAb; positions and chain not stated
- IC50 (nM), cytotoxicity on HCT116 cells, viability after 72 hours (doppel): 39.3 nM

B2: 3H9-vc-MMAE (antibody, human IgG1, kappa, V domains shown)
VH: B1 VH
VL: B1 VL
modifications: mc-Val-Cit-PABA-MMAE linker-payload on reduced Cys residues of the partially reduced mAb; positions and chain not stated
- IC50 (nM), cytotoxicity on HCT116 cells, viability after 72 hours (doppel): 28.6 nM
